Molecular target: T1, α4β7 integrin (Homo sapiens, UniProt P13612+P26010)
T1 construct: monitoring the capture of α4β7 integrin expressing cells on a recombinant MadCAM-1 extracellular domain-coated plate; endogenous in cells; host or cells: RPMI8866 cells
T1 sequence (P13612 34-1032): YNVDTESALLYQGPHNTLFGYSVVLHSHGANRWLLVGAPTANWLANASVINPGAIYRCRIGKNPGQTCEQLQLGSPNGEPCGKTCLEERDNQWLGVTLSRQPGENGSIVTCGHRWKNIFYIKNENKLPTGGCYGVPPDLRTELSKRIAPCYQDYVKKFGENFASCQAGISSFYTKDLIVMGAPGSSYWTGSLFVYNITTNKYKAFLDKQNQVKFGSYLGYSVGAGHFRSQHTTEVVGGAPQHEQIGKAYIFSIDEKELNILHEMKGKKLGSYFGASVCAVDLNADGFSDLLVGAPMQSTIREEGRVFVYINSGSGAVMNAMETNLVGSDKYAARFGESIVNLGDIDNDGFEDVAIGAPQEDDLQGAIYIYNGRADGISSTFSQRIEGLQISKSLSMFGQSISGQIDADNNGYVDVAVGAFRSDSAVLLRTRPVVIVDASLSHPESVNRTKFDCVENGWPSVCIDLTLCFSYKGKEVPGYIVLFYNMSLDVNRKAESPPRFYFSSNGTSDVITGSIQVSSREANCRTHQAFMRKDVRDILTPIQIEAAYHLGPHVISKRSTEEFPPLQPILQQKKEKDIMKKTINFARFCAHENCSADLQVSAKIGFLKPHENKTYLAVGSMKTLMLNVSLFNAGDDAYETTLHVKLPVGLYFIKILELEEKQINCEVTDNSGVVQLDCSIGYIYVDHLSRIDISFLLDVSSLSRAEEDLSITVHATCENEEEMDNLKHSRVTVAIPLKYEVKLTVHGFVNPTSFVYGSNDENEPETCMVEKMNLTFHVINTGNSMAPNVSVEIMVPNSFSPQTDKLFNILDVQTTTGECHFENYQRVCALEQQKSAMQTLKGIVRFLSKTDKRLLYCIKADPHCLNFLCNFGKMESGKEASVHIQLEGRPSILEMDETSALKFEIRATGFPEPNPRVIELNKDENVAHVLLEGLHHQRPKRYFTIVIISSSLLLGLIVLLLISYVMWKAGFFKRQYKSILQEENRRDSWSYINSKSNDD
T1 sequence (P26010 20-798): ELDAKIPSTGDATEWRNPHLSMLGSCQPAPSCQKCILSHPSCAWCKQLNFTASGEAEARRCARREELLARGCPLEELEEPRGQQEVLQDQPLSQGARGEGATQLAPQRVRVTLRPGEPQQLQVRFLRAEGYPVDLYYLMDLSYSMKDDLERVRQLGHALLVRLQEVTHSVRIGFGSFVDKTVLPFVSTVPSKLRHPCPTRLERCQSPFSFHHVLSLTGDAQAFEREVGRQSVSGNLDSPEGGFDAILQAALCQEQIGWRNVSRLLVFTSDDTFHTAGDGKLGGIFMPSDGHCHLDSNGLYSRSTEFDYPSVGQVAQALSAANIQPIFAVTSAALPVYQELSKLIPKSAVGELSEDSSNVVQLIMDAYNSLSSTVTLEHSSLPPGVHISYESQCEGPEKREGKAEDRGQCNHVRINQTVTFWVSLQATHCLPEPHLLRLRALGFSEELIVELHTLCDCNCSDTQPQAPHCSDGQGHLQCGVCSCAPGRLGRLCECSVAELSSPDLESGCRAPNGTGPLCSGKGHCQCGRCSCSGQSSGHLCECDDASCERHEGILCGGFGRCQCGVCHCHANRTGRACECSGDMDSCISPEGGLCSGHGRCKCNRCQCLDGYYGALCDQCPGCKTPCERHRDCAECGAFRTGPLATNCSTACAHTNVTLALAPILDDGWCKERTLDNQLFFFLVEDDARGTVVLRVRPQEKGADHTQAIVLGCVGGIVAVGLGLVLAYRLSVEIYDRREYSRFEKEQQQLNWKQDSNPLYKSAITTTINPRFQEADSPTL
Assay: α4β7 Integrin Cell Capture Assay
Type: cell-based
Details: capture of α4β7 integrin expressing RPMI8866 cells on recombinant MadCAM-1 extracellular domain-coated plate; DMEM+0.5% FBS+0.5 mM MnCl2; read-out: EC50 α4β7
How it was run: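 RPMI8866 cells in DMEM + 0.5% FBS + 0.5 mM MnCl2 preincubated with compound 1 h at 37 °C, then allowed to bind 30 min at 37 °C to plates coated with MAdCAM-1 extracellular domain (1.0 μg/mL). Cells fixed with glutaraldehyde, Hoechst-stained, imaged and bound cells counted; EC50 from cell count versus concentration.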

Row | Structure (SMILES) | EC50
1 | COc1cccc(OC)c1-c1ccc(C[C@@H](NC(=O)c2c(F)cc(NS(=O)(=O)c3ccc(-n4cncn4)cc3)cc2F)C(=O)O)c2ccncc12 (single isomer, unassigned) [Example 165] | 0.0378 µM
2 | COc1cc(F)c(F)cc1-c1ccc(C[C@H](NC(=O)c2c(Cl)cccc2Cl)C(=O)O)c2nccc(C)c12 (single isomer, unassigned) [Example 99] | 0.0504 µM
3 | O=C(N[C@@H](Cc1ccc(-c2cc(F)c(F)cc2OC2CC2)c2ccccc12)C(=O)O)c1c(Cl)cccc1Cl [Example 116, (S)-3-(4-(2-cyclopropoxy-4,5-difluorophenyl)naphthalen-1-yl)-2-(2,6-dichlorobenzamido)propanoic acid] | 0.0726 µM
4 | CCOCc1cc(OC)c(-c2ccc(C[C@H](NC(=O)c3c(F)cc(NS(=O)(=O)c4ccc(-c5ccnc(F)c5)cc4)cc3F)C(=O)O)c3ccncc23)c(OC)c1 (single isomer, unassigned) [Example 161] | 0.0005 µM
5 | COc1cc(F)c(F)cc1-c1ccc(C[C@H](NC(=O)c2c(Cl)cccc2Cl)C(=O)O)c2nccc(C)c12 (single isomer, unassigned) [Example 98] | 0.469 µM
6 | Cc1cc(C(F)(F)F)c(-c2ccc(C[C@H](NC(=O)c3c(F)cc(N4CCOC[C@@H]4C(F)(F)F)cc3F)C(=O)O)c3ncccc23)c(=O)n1C (single isomer, unassigned) [Example 86] | 0.0003 µM
7 | Cn1c2c(c(C(F)(F)F)c(-c3ccc(C[C@H](NC(=O)c4c(Cl)cccc4Cl)C(=O)O)c4ncccc34)c1=O)CCC2 [Example 68, (S)-2-(2,6-dichlorobenzamido)-3-(5-(1-methyl-2-oxo-4-(trifluoromethyl)-2,5,6,7-tetrahydro-1H-cyclopenta[b]pyridin-3-yl)quinolin-8-yl)propanoic acid] | 0.0027 µM
8 | CCOCc1cc(OC)c(-c2ccc(C[C@H](NC(=O)c3c(F)cc(NS(=O)(=O)c4ccc(-c5ccnc(F)c5)cc4)cc3F)C(=O)O)c3c2cnn3C)c(OC)c1 [Example 144] | 0.0049 µM
9 | Cc1cc(C(F)(F)F)c(-c2ccc(C[C@H](NC(=O)c3c(F)cc(N4CCOC[C@@H]4C(F)(F)F)cc3F)C(=O)O)c3ccccc23)c(=O)n1C (single isomer, unassigned) [Example 129] | 0.0001 µM
10 | Cc1c(-c2ccc(C[C@H](NC(=O)c3c(Cl)cccc3Cl)C(=O)O)c3ncccc23)c(=O)n(C)c2ccc(C3CC3)cc12 [Example 71, (S)-3-(6-cyclopropyl-1,4-dimethyl-2-oxo-1,2-dihydro-[3,5′-biquinolin]-8′-yl)-2-(2,6-dichlorobenzamido)propanoic acid] | 0.0154 µM
11 | COc1cccc(OC)c1-c1ccc(C[C@H](NC(=O)c2c(F)cc(NS(=O)(=O)c3ccc(-c4ccnc(F)c4)cc3)cc2F)C(=O)O)c2nccnc12 [Example 154, (S)-2-(2,6-difluoro-4-((4-(2-fluoropyridin-4-yl)phenyl)sulfonamido)benzamido)-3-(8-(2,6-dimethoxyphenyl)quinoxalin-5-yl)propanoic acid] | 0.0026 µM
12 | Cc1c(-c2ccc(C[C@H](NC(=O)c3c(Cl)cccc3Cl)C(=O)O)c3ncccc23)c(=O)n(C)c2cc(F)ccc12 [Example 41, (S)-2-(2,6-dichlorobenzamido)-3-(7-fluoro-1,4-dimethyl-2-oxo-1,2-dihydro-[3,5′-biquinolin]-8′-yl)propanoic acid] | 0.0075 µM
13 | Cc1nn(C)nc1-c1ccc(C[C@H](NC(=O)c2c(Cl)cccc2Cl)C(=O)O)c2ncccc12 [Example 26, (S)-2-(2,6-dichlorobenzamido)-3-(5-(2,5-dimethyl-2H-1,2,3-triazol-4-yl)quinolin-8-yl)propanoic acid] | 0.29 µM

Other lines, results leading:

Row | EC50 | Structure (SMILES)
14 | 0.0578 µM | CCOCc1cc(OC)c(-c2ccc(C[C@H](NC(=O)c3c(F)cccc3F)C(=O)O)c3nc(C)oc23)c(OC)c1 [Example 152, (S)-2-(2,6-difluorobenzamido)-3-(7-(4-(ethoxymethyl)-2,6-dimethoxyphenyl)-2-methylbenzo[d]oxazol-4-yl)propanoic acid]
15 | 0.111 µM | COc1cc(F)c(F)cc1-c1ccc(C[C@H](NC(=O)c2c(Cl)cccc2Cl)C(=O)O)c2nccc(Cl)c12 [Example 94, (S)-3-(4-chloro-5-(4,5-difluoro-2-methoxyphenyl)quinolin-8-yl)-2-(2,6-dichlorobenzamido)propanoic acid]
16 | 0.0894 µM | COc1cc(F)c(F)cc1-c1ccc(C[C@H](NC(=O)c2c(F)cccc2F)C(=O)O)c2nccc(Cl)c12 [Example 92, (S)-3-(4-chloro-5-(4,5-difluoro-2-methoxyphenyl)quinolin-8-yl)-2-(2,6-difluorobenzamido)propanoic acid]
17 | 0.02 µM | O=C(N[C@@H](Cc1ccc(-c2ncc3ccccc3c2Br)c2cccnc12)C(=O)O)c1c(Cl)cccc1Cl [Example 25, (S)-3-(5-(4-bromoisoquinolin-3-yl)quinolin-8-yl)-2-(2,6-dichlorobenzamido)propanoic acid]
18 | 0.0084 µM | COc1cnn(C)c(=O)c1-c1ccc(C[C@H](NC(=O)c2c(Cl)cccc2Cl)C(=O)O)c2ncccc12 (single isomer, unassigned) [Example 73]
19 | 0.0002 µM | COc1cc(C)n(C)c(=O)c1-c1ccc(C[C@H](NC(=O)c2c(F)cc(N3CCOC[C@@H]3C(F)(F)F)cc2F)C(=O)O)c2ccccc12 (single isomer, unassigned) [Example 124]
20 | 0.702 µM | O=C(N[C@@H](Cc1ccc(-c2c(Cl)cc(F)cc2Cl)c2cccnc12)C(=O)O)c1c(F)cc(N2CCOCC2C(F)(F)F)cc1F (single isomer, unassigned) [Example 5]
21 | 0.15 µM | COc1cc(F)cc(Cl)c1-c1ccc(C[C@H](NC(=O)c2c(Cl)cccc2Cl)C(=O)O)c2ncccc12 (single isomer, unassigned) [Example 53]
22 | 0.0268 µM | Cn1c(=O)c(-c2ccc(C[C@H](NC(=O)c3c(Cl)cccc3Cl)C(=O)O)c3ncccc23)c(C(F)(F)F)c2cc(Br)ccc21 (single isomer, unassigned) [Example 65]
23 | 0.0102 µM | CC[C@@H](Nc1cc(F)c(C(=O)N[C@@H](Cc2ccc(-c3nccc(C)c3C(F)(F)F)c3ccccc23)C(=O)O)c(F)c1)C(F)(F)F [Example 123, (S)-2-(2,6-difluoro-4-(((R)-1,1,1-trifluorobutan-2-yl)amino)benzamido)-3-(4-(4-methyl-3-(trifluoromethyl)pyridin-2-yl)naphthalen-1-yl)propanoic acid]
24 | 0.001 µM | CCOCc1cc(OC)c(-c2ccc(C[C@H](NC(=O)c3c(F)cc(NS(=O)(=O)c4ccc(-c5ccnc(F)c5)cc4)cc3F)C(=O)O)c3ncccc23)c(OC)c1 [Example 102, (S)-2-(2,6-difluoro-4-((4-(2-fluoropyridin-4-yl)phenyl)sulfonamido)benzamido)-3-(5-(4-(ethoxymethyl)-2,6-dimethoxyphenyl)quinolin-8-yl)propanoic acid]
25 | 0.082 µM | Cc1c(-c2ccc(C[C@H](NC(=O)c3c(Cl)cccc3Cl)C(=O)O)c3ccccc23)c(=O)n(C)c2ccccc12 (single isomer, unassigned) [Example 117]

Source: US11179383B2 (Gilead Sciences, Inc., priority 2018, dated 2021)
